Assay results reported in ChEMBL document CHEMBL1759899, “Design and synthesis of several small-size HTLV-I protease inhibitors with different hydrophilicity profiles” (Bioorg Med Chem Lett, 2011).
Numbered stars: 1 amine (or outer) side, 2 acyl side, 3 side chain; on linkers, the order of the positions; unused ones are H or OH. Square brackets hold non-standard residues; d marks the D form. Peptide text beside a SMILES is read from it. * marks the point of attachment. X1 = O=C([C@@H](O)[C@H](Cc1ccccc1)N[*:1])[*:2]; Thz(5,5-Me2) = CC1(C)SCN[C@@H]1C(=O)O; Phg = N[C@H](C(=O)O)c1ccccc1; Tle = CC(C)(C)[C@H](N)C(=O)O; Dap = NC[C@H](N)C(=O)O; NHCH2tBu = CC(C)(C)CN*

What was measured:
[1] = biological target: Protease (Human immunodeficiency virus 1) (UniProt Q9YQ12); assay: Inhibition of HIV1 recombinant protease at 50 nM
Sequence of Protease (Human immunodeficiency virus 1) (Q9YQ12 as listed by the source): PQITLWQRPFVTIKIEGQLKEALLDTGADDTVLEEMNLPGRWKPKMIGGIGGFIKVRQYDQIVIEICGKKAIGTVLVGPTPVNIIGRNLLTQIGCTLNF

Protease = Protease (Human T-cell leukemia virus type I, UniProt Q82134, L40I); assay: Inhibition of HTLV-1 recombinant protease L40I mutant
[2] = tested on: T1, Protease (Human T-cell leukemia virus type I), Q82134 [L40I]; assay: Inhibition of HTLV-1 recombinant protease L40I mutant at 50 nM
T1 sequence (whole entry): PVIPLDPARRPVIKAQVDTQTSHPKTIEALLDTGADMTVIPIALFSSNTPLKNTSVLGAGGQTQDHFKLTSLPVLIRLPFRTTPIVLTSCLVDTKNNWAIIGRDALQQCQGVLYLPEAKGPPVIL

| SMILES | inhibition [1] | IC50 (Protease) | inhibition [2] |
| --- | --- | --- | --- |
| CC(C)(C)CNC(=O)[C@H]1N(C(=O)[C@@H](O)[C@H](Cc2ccccc2)NC(=O)[C@@H](NC(=O)[C@@H](NC(=O)CCCN)c2ccccc2)C(C)(C)C)CSC1(C)C | 99% | 25.4 nM |  |
| COC(=O)N[C@H](C(=O)N[C@H](C(=O)N[C@@H](Cc1ccccc1)[C@H](O)C(=O)N1CSC(C)(C)[C@H]1C(=O)NNC(C)(C)C)C(C)(C)C)c1ccccc1 | 99% | 10.4 nM |  |
| CC(C)(C)CNC(=O)[C@H]1N(C(=O)[C@@H](O)[C@H](Cc2ccccc2)NC(=O)[C@@H](NC(=O)[C@@H](NC(=O)[C@@H](N)CN)c2ccccc2)C(C)(C)C)CSC1(C)C (H-[Dap][Phg][Tle][X1][Thz(5,5-Me2)]-NHCH2tBu) | 72% |  | 8% |
| CC(C)(C)CNC(=O)[C@H]1N(C(=O)[C@@H](O)[C@H](Cc2ccccc2)NC(=O)[C@@H](NC(=O)[C@@H](NC(=O)C(C)(CO)CO)c2ccccc2)C(C)(C)C)CSC1(C)C | 86% |  | 18% |
| CC(C)(C)CNC(=O)[C@H]1N(C(=O)[C@@H](O)[C@H](Cc2ccccc2)NC(=O)[C@@H](NC(=O)[C@@H](NC(=O)CN)c2ccccc2)C(C)(C)C)CSC1(C)C (H-G[Phg][Tle][X1][Thz(5,5-Me2)]-NHCH2tBu) | 94% | 41.1 nM |  |
| CC(C)(C)CNC(=O)[C@H]1N(C(=O)[C@@H](O)[C@H](Cc2ccccc2)NC(=O)[C@@H](NC(=O)[C@@H](N)c2ccccc2)C(C)(C)C)CSC1(C)C |  |  | 38% |
| CCN[C@H](C(=O)N[C@H](C(=O)N[C@@H](Cc1ccccc1)[C@H](O)C(=O)N1CSC(C)(C)[C@H]1C(=O)NCC(C)(C)C)C(C)(C)C)c1ccccc1 | 99% | 25.5 nM | 38% |
| CN(C)[C@H](C(=O)N[C@H](C(=O)N[C@@H](Cc1ccccc1)[C@H](O)C(=O)N1CSC(C)(C)[C@H]1C(=O)NCC(C)(C)C)C(C)(C)C)c1ccccc1 | 99% |  | 38% |
| CCN(CC)[C@H](C(=O)N[C@H](C(=O)N[C@@H](Cc1ccccc1)[C@H](O)C(=O)N1CSC(C)(C)[C@H]1C(=O)NCC(C)(C)C)C(C)(C)C)c1ccccc1 | 98% |  | 39% |
| CCCC(=O)N[C@H](C(=O)N[C@H](C(=O)N[C@@H](Cc1ccccc1)[C@H](O)C(=O)N1CSC(C)(C)[C@H]1C(=O)NCC(C)(C)C)C(C)(C)C)c1ccccc1 | 99% |  |  |
| COC(=O)N[C@H](C(=O)N[C@H](C(=O)N[C@@H](Cc1ccccc1)[C@H](O)C(=O)N1CSC(C)(C)[C@H]1C(=O)NCC(C)(C)C)C(C)(C)C)c1ccccc1 | 99% | 7.2 nM |  |
| COC(=O)N[C@H](C(=O)N[C@H](C(=O)N[C@@H](Cc1ccccc1)[C@H](O)C(=O)N1CSC(C)(C)[C@H]1C(=O)NCC(C)(C)O)C(C)(C)C)c1ccccc1 | 99% | 39.1 nM |  |
| CN[C@H](C(=O)N[C@H](C(=O)N[C@@H](Cc1ccccc1)[C@H](O)C(=O)N1CSC(C)(C)[C@H]1C(=O)NCC(C)(C)C)C(C)(C)C)c1ccccc1 | > 99% | 31.4 nM | 38% |
| CC(C)(C)CNC(=O)[C@H]1N(C(=O)[C@@H](O)[C@H](Cc2ccccc2)NC(=O)[C@@H](NC(=O)[C@@H](NC(=O)CCN)c2ccccc2)C(C)(C)C)CSC1(C)C | 99% | 5.7 nM | 90% |
| CC(C)(C)CNC(=O)[C@H]1N(C(=O)[C@@H](O)[C@H](Cc2ccccc2)NC(=O)[C@@H](NC(=O)[C@@H](NCc2ccccc2)c2ccccc2)C(C)(C)C)CSC1(C)C | 92% |  | 44% |
